For this series, the system named is primary-culture hepatocytes. Briefly: Leakage of GOT from primary-culture hepatocytes exposed to liver poison (Test Examples 1-4). The conditions noted are these: Liver poison alone, no addition of HGF (Carbon tetrachloride 5 mM; Mitomycin C 8 µM); culture for 24 hours; control 6.0 ± 0.4. Type of series: cell-based, rat.

Our source for the GOT activity values is patent EP0724884B1, “SIDE EFFECT INHIBITOR FOR CANCER THERAPY” (Nakamura, Toshikazu, priority 1991, dated 1993).

Method: The primary culture was carried out as follows: Isolated hepatocytes were dispersed in William's medium (5% bovine serum, 10^-9 M insulin and 10^-9 M dexamethasone) and the cells were seeded in a 12-well plastic dish (Corning Co.) having the bottom coated with Type-I collagen. The culture medium was exchanged with the medium containing aprotinin at 0.5 µg/ml and without serum and hormones 2 hours later.
The protective effect of HGF on the hepatocytes was tested by the effect on the leakage to enzymes from the cytoplasm of the hepatocytes in the primary culture.
In order to mimick this phenomenon, hepatocyte primary-culture added with the liver poison was used. Thus the leakage of cytoplasmic enzymes such as GOT was measured in this culture system, and the protective activity on the hepatocytes by HGF was estimated along with measurement of the degree of inhibition of leakage of GOT or others. […]
The primary-culture hepatocytes described in Reference Example 3 were seeded at the surface density of 1.2 x 10^5 cells/cm^2 and on the next day, the medium was changed to one without serum, followed by the addition of HGF at 10 ng/ml and/or carbon tetrachloride at 5 mM. […] The GOT activity in the supernatant was measured by the conventional method. […]

`ClC(Cl)(Cl)Cl` [Carbon tetrachloride] displayed a GOT activity of 12.7 ± 1.2 mU/ml.
